# Test results from patent US11945822B2, “Pyrazolo-triazine and/or pyrazolo-pxrimidine derivatives as selective inhibitor of cyclin dependent kinase” (QURIENT CO., LTD., priority 2018, dated 2024).
# Target: T1, CDK5/p25 (Homo sapiens, UniProt Q00535)
# T1 construct: purchased Invitrogen PR8543B
# Experiment: Enzymatic assay for CDK5 (FRET based LANCE Ultra kinase assay)
# Type: biochemical
# Settings: read-out: CDK5 enzymatic activity (IC50 activity range)
# How it was run: (§1)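 TR-FRET (LANCE Ultra) kinase assay at ATP Km, ULight-MBP peptide substrate (68 nM), 8-dose 4-fold compound series in DMSO. Enzymes: […]; 60 min at 23° C., stopped with EDTA plus Eu-anti-phospho-MBP antibody, read 665/615 nm after 60 min.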
# T1 sequence (Q00535 whole entry): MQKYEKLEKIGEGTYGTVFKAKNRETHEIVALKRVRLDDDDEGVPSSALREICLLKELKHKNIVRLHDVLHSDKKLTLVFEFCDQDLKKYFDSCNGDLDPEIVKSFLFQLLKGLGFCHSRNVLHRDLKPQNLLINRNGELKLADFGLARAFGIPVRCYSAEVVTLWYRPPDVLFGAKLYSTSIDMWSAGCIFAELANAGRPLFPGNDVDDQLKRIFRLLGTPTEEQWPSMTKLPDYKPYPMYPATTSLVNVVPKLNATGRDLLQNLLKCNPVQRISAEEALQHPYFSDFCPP
# T1 sequence (Q15078 99-307 partner limits assumed): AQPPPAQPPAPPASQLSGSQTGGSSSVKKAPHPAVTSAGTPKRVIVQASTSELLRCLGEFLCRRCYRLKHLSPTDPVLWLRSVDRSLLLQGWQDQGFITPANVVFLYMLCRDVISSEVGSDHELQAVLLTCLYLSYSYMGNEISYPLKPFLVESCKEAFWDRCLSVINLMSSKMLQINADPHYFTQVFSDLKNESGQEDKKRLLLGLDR
row,IC50,Structure (SMILES)
1,> 1000 nM,CC(C)c1cnn2c(NCc3c(Cl)cccc3-n3ccc(C(C)(C)O)n3)nc(Nc3cccc4[nH]ccc34)nc12 [Compound 276]

# Same assay, conditions: read-out: CDK5 enzymatic activity (IC50 range)
row,IC50,Structure (SMILES)
1,100 to 1000 nM,CC(C)c1cnn2c(NCc3ccccc3-n3cc4c(n3)CCCC4)nc(N3CCC(N)CC3)nc12 [Compound 109]
2,< 100 nM,CC(C)c1cnn2c(NCc3ccccc3-c3cc4c(F)cccc4[nH]3)nc(N3CCC(N)CC3)nc12 [Compound 112]

# System: RPMI-8226
# Experiment: Cellular RPMI-8226 viability assay (CellTiter-Glo, 72 hours)
# Type: cell-based
# Settings: Homo sapiens
# How it was run: (§2)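 Steps: seed cells at per-line density; add compound, DMSO vehicle kept under 0.1% final; incubate 72 h, 37 °C, 5% CO2; lyse with CellTiter-Glo and read luminescence; run in duplicate.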
row,IC50,Structure (SMILES)
1,< 1000 nM,CC(C)c1cnn2c(NCc3ccccc3-n3cc4c(n3)CCCC4)nc(N3CCC(N)CC3)nc12 [Compound 109]
2,< 1000 nM,CC(C)c1cnn2c(NCc3ccccc3-c3cc4c(F)cccc4[nH]3)nc(N3CCC(N)CC3)nc12 [Compound 112]

# System: H460
# Experiment: Cellular H460 viability assay (CellTiter-Glo, 72 hours)
# Type: cell-based
# Settings: Homo sapiens, NCI-H460
# How it was run: as §2
row,IC50,Structure (SMILES)
1,< 1000 nM,CC(C)c1cnn2c(NCc3ccccc3-n3cc4c(n3)CCCC4)nc(N3CCC(N)CC3)nc12 [Compound 109]
2,< 1000 nM,CC(C)c1cnn2c(NCc3ccccc3-c3cc4c(F)cccc4[nH]3)nc(N3CCC(N)CC3)nc12 [Compound 112]

# Target: T2, CDK2/Cyclin A (Homo sapiens, UniProt P24941)
# T2 construct: purchased Invitrogen PV6290
# Experiment: Enzymatic assay for CDK2 (FRET based LANCE Ultra kinase assay)
# Type: biochemical
# Settings: read-out: CDK2 enzymatic activity (IC50 activity range)
# How it was run: as §1
row,IC50,Structure (SMILES)
1,> 1000 nM,CC(C)c1cnn2c(NCc3c(Cl)cccc3-n3ccc(C(C)(C)O)n3)nc(Nc3cccc4[nH]ccc34)nc12 [Compound 276]

# Same assay, conditions: read-out: CDK2 enzymatic activity (IC50 range)
row,IC50,Structure (SMILES)
1,100 to 1000 nM,CC(C)c1cnn2c(NCc3ccccc3-n3cc4c(n3)CCCC4)nc(N3CCC(N)CC3)nc12 [Compound 109]
2,100 to 1000 nM,CC(C)c1cnn2c(NCc3ccccc3-c3cc4c(F)cccc4[nH]3)nc(N3CCC(N)CC3)nc12 [Compound 112]

# System: MV4-11
# Experiment: Cellular MV4-11 viability assay (CellTiter-Glo, 72 hours)
# Type: cell-based
# Settings: Homo sapiens
# How it was run: as §2
row,IC50,Structure (SMILES)
1,< 1000 nM,CC(C)c1cnn2c(NCc3ccccc3-n3cc4c(n3)CCCC4)nc(N3CCC(N)CC3)nc12 [Compound 109]
2,< 1000 nM,CC(C)c1cnn2c(NCc3ccccc3-c3cc4c(F)cccc4[nH]3)nc(N3CCC(N)CC3)nc12 [Compound 112]
3,< 1000 nM,CC(C)c1cnn2c(NCc3c(Cl)cccc3-n3ccc(C(C)(C)O)n3)nc(Nc3cccc4[nH]ccc34)nc12 [Compound 276]

# Target: T3, CDK7/Cyclin H/MNAT1 (Homo sapiens, UniProt P50613)
# T3 construct: purchased Invitrogen PR6749B
# Experiment: Enzymatic assay for CDK7 (FRET based LANCE Ultra kinase assay)
# Type: biochemical
# Settings: CDK1/CDK7
# How it was run: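 LANCE Ultra TR-FRET kinase assay using a ULight-labeled peptide substrate and a Eu-labeled anti-phospho antibody, with ATP at its Km. Purified CDK/cyclin complex was added to compound after brief centrifugation.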
# T3 sequence (P50613 whole entry): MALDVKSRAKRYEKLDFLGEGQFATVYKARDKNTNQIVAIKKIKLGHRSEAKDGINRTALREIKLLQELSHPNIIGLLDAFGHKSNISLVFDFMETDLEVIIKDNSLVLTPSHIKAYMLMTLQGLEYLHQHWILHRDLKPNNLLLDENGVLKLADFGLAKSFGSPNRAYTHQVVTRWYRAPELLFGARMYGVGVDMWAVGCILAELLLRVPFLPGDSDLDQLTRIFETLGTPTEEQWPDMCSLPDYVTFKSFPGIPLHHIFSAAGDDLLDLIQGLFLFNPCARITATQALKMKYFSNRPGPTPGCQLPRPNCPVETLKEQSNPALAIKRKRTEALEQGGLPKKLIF
# T3 sequence (P51946 whole entry partner): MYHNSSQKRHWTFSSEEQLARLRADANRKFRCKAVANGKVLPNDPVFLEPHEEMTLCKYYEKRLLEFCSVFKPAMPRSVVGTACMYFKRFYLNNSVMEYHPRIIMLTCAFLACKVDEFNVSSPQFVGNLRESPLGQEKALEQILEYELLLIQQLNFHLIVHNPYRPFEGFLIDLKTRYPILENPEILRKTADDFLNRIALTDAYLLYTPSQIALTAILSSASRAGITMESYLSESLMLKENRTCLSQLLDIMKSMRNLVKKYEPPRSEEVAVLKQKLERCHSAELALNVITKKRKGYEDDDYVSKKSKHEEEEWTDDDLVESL
# T3 sequence (P51948 whole entry partner): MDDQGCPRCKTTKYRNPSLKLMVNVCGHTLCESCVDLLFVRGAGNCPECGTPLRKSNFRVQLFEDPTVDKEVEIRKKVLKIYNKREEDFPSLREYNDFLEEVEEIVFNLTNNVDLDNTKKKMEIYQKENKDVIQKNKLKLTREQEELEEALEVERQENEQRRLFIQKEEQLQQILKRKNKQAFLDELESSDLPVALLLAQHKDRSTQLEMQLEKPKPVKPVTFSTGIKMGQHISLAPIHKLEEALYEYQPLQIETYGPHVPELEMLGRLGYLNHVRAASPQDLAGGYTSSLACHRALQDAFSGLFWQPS
row,Structure (SMILES),CDK1/CDK7: Selectivity of CDK7 inhibition over CDK1 inhibition
1,CC(C)c1cnn2c(NCc3c(Cl)cccc3-n3ccc(C(C)(C)O)n3)nc(Nc3cccc4[nH]ccc34)nc12 [Compound 276],"B (B=less than 200 fold, but greater than 20 fold)"

# Same assay, conditions: CDK2/CDK7
row,Structure (SMILES),CDK2/CDK7: Selectivity of CDK7 inhibition over CDK2 inhibition
1,CC(C)c1cnn2c(NCc3c(Cl)cccc3-n3ccc(C(C)(C)O)n3)nc(Nc3cccc4[nH]ccc34)nc12 [Compound 276],"B (B=less than 200 fold, but greater than 20 fold)"

# Same assay, conditions: CDK5/CDK7
row,Structure (SMILES),CDK5/CDK7: Selectivity of CDK7 inhibition over CDK5 inhibition
1,CC(C)c1cnn2c(NCc3c(Cl)cccc3-n3ccc(C(C)(C)O)n3)nc(Nc3cccc4[nH]ccc34)nc12 [Compound 276],"B (B=less than 200 fold, but greater than 20 fold)"

# Same assay, conditions: CDK7 over CDK1
row,Structure (SMILES),CDK1/CDK7: Selectivity of CDK7 inhibition over CDK1 inhibition
1,CC(C)c1cnn2c(NCc3ccccc3-n3cc4c(n3)CCCC4)nc(N3CCC(N)CC3)nc12 [Compound 109],A (A=greater than 200 fold)
2,CC(C)c1cnn2c(NCc3ccccc3-c3cc4c(F)cccc4[nH]3)nc(N3CCC(N)CC3)nc12 [Compound 112],"B (B=less than 200 fold, but greater than 20 fold)"

# Same assay, conditions: CDK7 over CDK2
row,Structure (SMILES),CDK2/CDK7: Selectivity of CDK7 inhibition over CDK2 inhibition
1,CC(C)c1cnn2c(NCc3ccccc3-n3cc4c(n3)CCCC4)nc(N3CCC(N)CC3)nc12 [Compound 109],A (A=greater than 200 fold)
2,CC(C)c1cnn2c(NCc3ccccc3-c3cc4c(F)cccc4[nH]3)nc(N3CCC(N)CC3)nc12 [Compound 112],"B (B=less than 200 fold, but greater than 20 fold)"

# Same assay, conditions: CDK7 over CDK5
row,Structure (SMILES),CDK5/CDK7: Selectivity of CDK7 inhibition over CDK5 inhibition
1,CC(C)c1cnn2c(NCc3ccccc3-n3cc4c(n3)CCCC4)nc(N3CCC(N)CC3)nc12 [Compound 109],"B (B=less than 200 fold, but greater than 20 fold)"
2,CC(C)c1cnn2c(NCc3ccccc3-c3cc4c(F)cccc4[nH]3)nc(N3CCC(N)CC3)nc12 [Compound 112],C (C=less than 20 fold)

# Same assay, conditions: read-out: CDK7 enzymatic activity (IC50 activity range)
row,IC50,Structure (SMILES)
1,> 1000 nM,CC(C)c1cnn2c(NCc3c(Cl)cccc3-n3ccc(C(C)(C)O)n3)nc(Nc3cccc4[nH]ccc34)nc12 [Compound 276]

# Same assay, conditions: read-out: CDK7 enzymatic activity (IC50 range)
row,IC50,Structure (SMILES)
1,< 100 nM,CC(C)c1cnn2c(NCc3ccccc3-n3cc4c(n3)CCCC4)nc(N3CCC(N)CC3)nc12 [Compound 109]
2,< 100 nM,CC(C)c1cnn2c(NCc3ccccc3-c3cc4c(F)cccc4[nH]3)nc(N3CCC(N)CC3)nc12 [Compound 112]

# System: HCT116
# Experiment: Cellular HCT116 viability assay (CellTiter-Glo, 72 hours)
# Type: cell-based
# Settings: Homo sapiens, HCT-116
# How it was run: as §2
row,IC50,Structure (SMILES)
1,< 1000 nM,CC(C)c1cnn2c(NCc3ccccc3-n3cc4c(n3)CCCC4)nc(N3CCC(N)CC3)nc12 [Compound 109]
2,< 1000 nM,CC(C)c1cnn2c(NCc3ccccc3-c3cc4c(F)cccc4[nH]3)nc(N3CCC(N)CC3)nc12 [Compound 112]

# System: A2780
# Experiment: Cellular A2780 viability assay (CellTiter-Glo, 72 hours)
# Type: cell-based
# Settings: Homo sapiens
# From the text: Human T-cell acute lymphoblastic leukemia cell line, MOLT-4 (ATCC, Cat #CRL-1582), Human multiple myeloma cell line, RPMI-8226 (Invitrogen, Cat #22400-089) and MM.1S (ATCC, Cat #CRL-2974), NSCLC (Non-small cell lung cancer) cell line H460 (ATCC, Cat #HTB-177), Human colon colorectal carcinoma cell line HCT116 (ATCC, Cat #CCL-247), Human acute monocytic leukemia cell line MV4-11 (ATCC, Cat #CRL-9591), OVCAR-3 (ATCC, Cat #HTB-161) and A2780 (ECACC, Cat #93112519) were obtained from ATCC. Cells were grown in RPMI-1640 media (Invitrogen, Cat #22400-089) supplemented with 10% FBS (Invitrogen, Cat #10099141) and 1% penicillin/streptomycin (Invitrogen, Cat #15070063) and cultured at 37° C., 5% CO2 in a humidified chamber. All cell lines were routinely tested for mycoplasma.
# The effect of the CDK7 inhibitor to inhibit the growth of target cancer cells was evaluated through the 72 hours time period of viability assay. Briefly, the candidate cell line ware plated in 96 well plate at the following density of cells respectively. 1×10^4 cells/well for MOLT-4, RPMI-8226, MV4-11 and MM.1S, 5×10^3 for H460, HCT116 and OVCAR-3 and IX 10^3 for A2780. After 24 hours, the cells were treated with various concentrations of the compound (ranging from 0.0015 uM to 10 uM). DMSO solvent without compound served as a control and final DMSO concentration less than 0.1%. After 72 hours of incubation at 37° C., 5% CO2 incubator, cells were analyzed for the viability using the CellTiter-Glo Luminescent Cell Viability Assay (Promega, Cat #G7570). All viability assays were performed in duplicate and Luminescence was read using an Envision (Perkin Elmer, USA). Data was analyzed using XLfit software.
row,IC50,Structure (SMILES)
1,1000 to 10000 nM,CC(C)c1cnn2c(NCc3c(Cl)cccc3-n3ccc(C(C)(C)O)n3)nc(Nc3cccc4[nH]ccc34)nc12 [Compound 276]

# System: MOLT-4
# Experiment: Cellular MOLT-4 viability assay (CellTiter-Glo, 72 hours)
# Type: cell-based
# Settings: Homo sapiens, MOLT4 viability assay
# How it was run: as §2
row,IC50,Structure (SMILES)
1,< 1000 nM,CC(C)c1cnn2c(NCc3ccccc3-n3cc4c(n3)CCCC4)nc(N3CCC(N)CC3)nc12 [Compound 109]
2,< 1000 nM,CC(C)c1cnn2c(NCc3ccccc3-c3cc4c(F)cccc4[nH]3)nc(N3CCC(N)CC3)nc12 [Compound 112]

# Target: T4, CDK1/Cyclin B (Homo sapiens, UniProt P06493)
# T4 construct: purchased Invitrogen PR4768C
# Experiment: Enzymatic assay for CDK1 (FRET based LANCE Ultra kinase assay)
# Type: biochemical
# Settings: read-out: CDK1 enzymatic activity (IC50 activity range)
# How it was run: as §1
# T4 sequence (P06493 whole entry): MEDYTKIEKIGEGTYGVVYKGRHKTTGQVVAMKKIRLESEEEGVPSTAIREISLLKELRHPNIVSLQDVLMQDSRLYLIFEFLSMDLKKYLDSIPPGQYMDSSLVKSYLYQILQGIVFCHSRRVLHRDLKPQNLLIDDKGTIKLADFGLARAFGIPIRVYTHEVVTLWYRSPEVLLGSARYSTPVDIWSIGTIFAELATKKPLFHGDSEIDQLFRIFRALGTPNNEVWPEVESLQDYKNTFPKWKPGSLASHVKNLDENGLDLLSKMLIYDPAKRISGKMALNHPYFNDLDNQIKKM
# T4 sequence (P14635 whole entry partner): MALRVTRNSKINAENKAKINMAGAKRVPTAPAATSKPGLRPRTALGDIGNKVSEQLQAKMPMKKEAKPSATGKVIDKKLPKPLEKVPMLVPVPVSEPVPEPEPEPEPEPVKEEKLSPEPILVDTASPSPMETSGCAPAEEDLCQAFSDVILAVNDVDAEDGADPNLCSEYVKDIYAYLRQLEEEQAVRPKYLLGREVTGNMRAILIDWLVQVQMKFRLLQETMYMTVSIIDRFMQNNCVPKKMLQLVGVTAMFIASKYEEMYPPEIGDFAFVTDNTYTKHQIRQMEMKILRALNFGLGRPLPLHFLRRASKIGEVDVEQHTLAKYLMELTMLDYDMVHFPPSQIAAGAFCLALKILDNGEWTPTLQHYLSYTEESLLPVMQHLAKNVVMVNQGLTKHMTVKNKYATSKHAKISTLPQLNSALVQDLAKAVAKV
row,IC50,Structure (SMILES)
1,> 1000 nM,CC(C)c1cnn2c(NCc3c(Cl)cccc3-n3ccc(C(C)(C)O)n3)nc(Nc3cccc4[nH]ccc34)nc12 [Compound 276]

# Same assay, conditions: read-out: CDK1 enzymatic activity (IC50 range)
row,IC50,Structure (SMILES)
1,> 1000 nM,CC(C)c1cnn2c(NCc3ccccc3-n3cc4c(n3)CCCC4)nc(N3CCC(N)CC3)nc12 [Compound 109]
2,100 to 1000 nM,CC(C)c1cnn2c(NCc3ccccc3-c3cc4c(F)cccc4[nH]3)nc(N3CCC(N)CC3)nc12 [Compound 112]
